Values of other authors in PMC8348686, “The Pharmacological Profile of Second Generation Pyrovalerone Cathinones and Related Cathinone Derivative” (International Journal of Molecular Sciences, 2021).

Columns and labels:
h5-HT2B receptor = molecular target: T1, h5-HT2B receptor (Homo sapiens, UniProt P41595); design: method as in Rickli et al. (2015); conditions: read-out: h5-HT2B Activation Potency EC50 ± SD; ref Rickli et al. (2015); cited from earlier work
T1 construct: expressed in transfected cells; host or cells: HEK293
T1 sequence (P41595 whole entry): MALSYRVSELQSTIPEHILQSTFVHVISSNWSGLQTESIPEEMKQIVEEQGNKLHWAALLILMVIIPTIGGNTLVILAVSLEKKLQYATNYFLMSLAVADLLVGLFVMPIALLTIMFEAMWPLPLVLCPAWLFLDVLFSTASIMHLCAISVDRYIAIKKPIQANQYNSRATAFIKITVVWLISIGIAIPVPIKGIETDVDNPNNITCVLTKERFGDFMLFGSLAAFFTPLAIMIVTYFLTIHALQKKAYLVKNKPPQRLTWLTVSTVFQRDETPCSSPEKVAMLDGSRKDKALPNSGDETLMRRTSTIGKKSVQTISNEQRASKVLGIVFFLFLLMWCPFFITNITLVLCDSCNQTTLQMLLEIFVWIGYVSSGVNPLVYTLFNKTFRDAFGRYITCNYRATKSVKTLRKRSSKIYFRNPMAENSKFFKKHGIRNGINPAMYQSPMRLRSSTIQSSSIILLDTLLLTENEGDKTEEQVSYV

h5-HT2C receptor = molecular target: T2, h5-HT2C receptor (Homo sapiens, UniProt P28335); conditions: read-out: h5-HT2C Receptor Binding Ki ± SD; [3H]-Mesulgerine; ref Simmler et al. (2013); cited from earlier work
T2 construct: expressed in transfected cells; host or cells: HEK293 cell preparations
T2 sequence (P28335 33-458): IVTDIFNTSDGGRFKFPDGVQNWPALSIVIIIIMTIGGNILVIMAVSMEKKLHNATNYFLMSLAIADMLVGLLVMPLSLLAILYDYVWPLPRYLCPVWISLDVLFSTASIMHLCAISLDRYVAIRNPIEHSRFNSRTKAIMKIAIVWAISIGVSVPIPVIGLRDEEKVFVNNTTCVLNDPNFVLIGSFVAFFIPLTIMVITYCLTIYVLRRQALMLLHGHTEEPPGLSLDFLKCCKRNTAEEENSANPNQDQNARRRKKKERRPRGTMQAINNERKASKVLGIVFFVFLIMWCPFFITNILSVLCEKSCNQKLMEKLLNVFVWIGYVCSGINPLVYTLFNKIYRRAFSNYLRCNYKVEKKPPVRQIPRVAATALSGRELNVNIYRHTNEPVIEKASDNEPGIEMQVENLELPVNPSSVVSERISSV

dopaminergic D2 receptor = dopaminergic D2 receptor (Homo sapiens, UniProt P14416); conditions: read-out: D2 Receptor Binding Ki ± SD; [3H]-Spiperone; ref Simmler et al. (2013); cited from earlier work
Chain of dopaminergic D2 receptor (P14416 whole entry): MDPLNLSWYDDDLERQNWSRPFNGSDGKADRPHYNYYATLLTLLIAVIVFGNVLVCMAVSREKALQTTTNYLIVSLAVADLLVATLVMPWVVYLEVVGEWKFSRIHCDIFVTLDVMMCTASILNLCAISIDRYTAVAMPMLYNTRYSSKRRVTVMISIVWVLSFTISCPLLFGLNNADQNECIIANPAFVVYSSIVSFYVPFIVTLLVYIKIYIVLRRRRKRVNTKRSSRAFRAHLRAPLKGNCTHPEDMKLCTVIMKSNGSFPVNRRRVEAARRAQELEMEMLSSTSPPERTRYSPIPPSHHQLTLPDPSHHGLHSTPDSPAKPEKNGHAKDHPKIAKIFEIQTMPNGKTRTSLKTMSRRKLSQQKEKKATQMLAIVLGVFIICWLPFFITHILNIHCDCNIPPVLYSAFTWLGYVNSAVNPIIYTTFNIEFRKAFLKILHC

adrenergic α1A receptor = molecular target: T3, adrenergic α1A receptor (Homo sapiens, UniProt P35348); conditions: read-out: α1A Receptor Binding Ki ± SD; [3H]-Prazosin; ref Simmler et al. (2013); cited from earlier work
T3 sequence (P35348 1-466): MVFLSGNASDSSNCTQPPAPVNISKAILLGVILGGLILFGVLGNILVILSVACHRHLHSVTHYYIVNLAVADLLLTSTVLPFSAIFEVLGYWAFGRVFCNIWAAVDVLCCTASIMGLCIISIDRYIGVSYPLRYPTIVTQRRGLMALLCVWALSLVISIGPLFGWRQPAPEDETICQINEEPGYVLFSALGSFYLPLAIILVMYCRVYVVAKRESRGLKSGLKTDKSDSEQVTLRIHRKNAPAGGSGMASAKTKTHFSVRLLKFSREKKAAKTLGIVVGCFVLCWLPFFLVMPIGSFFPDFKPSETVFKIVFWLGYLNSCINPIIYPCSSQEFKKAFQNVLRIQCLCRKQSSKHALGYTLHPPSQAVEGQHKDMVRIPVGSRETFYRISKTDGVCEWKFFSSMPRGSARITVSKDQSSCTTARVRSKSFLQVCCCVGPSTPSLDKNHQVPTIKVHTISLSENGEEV

adrenergic α2A receptor = molecular target: T4, adrenergic α2A receptor (Homo sapiens, UniProt P08913); conditions: read-out: α2A Receptor Binding Ki ± SD; [3H]-Rauwolscine; ref Simmler et al. (2013); cited from earlier work
T4 sequence (P08913 1-465): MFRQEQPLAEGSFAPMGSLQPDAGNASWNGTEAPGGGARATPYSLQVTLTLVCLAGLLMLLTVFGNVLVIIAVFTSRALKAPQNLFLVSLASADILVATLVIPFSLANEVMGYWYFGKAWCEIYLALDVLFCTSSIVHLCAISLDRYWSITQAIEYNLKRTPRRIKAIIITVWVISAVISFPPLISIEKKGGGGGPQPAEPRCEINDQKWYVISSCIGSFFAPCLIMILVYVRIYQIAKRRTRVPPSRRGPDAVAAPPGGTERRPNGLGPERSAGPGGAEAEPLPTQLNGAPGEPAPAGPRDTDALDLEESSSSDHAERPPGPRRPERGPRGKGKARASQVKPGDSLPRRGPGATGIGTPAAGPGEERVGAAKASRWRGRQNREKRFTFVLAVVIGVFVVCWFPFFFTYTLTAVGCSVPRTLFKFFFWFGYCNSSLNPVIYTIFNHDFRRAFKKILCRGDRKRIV

Human TAAR1 = test system: Human TAAR1; design: method as in Simmler et al. (2016); conditions: ref Simmler et al. (2016); read-out: Human TAAR1 Activation Potency EC50 ± SD; cited from earlier work
Rat TAAR1 = conditions: [3H]-RO5166017; ref Simmler et al. (2013); read-out: Rat TAAR1 Receptor Binding Ki ± SD; cited from earlier work
Mouse TAAR1 = conditions: [3H]-RO5166017; ref Simmler et al. (2013); read-out: Mouse TAAR1 Receptor Binding Ki ± SD; cited from earlier work
h5-HT2A receptor = h5-HT2A receptor (Homo sapiens, UniProt P28223); design: expressed in transfected cells; host or cells: HEK293 cell preparations; conditions: read-out: h5-HT2A Receptor Binding Ki ± SD; [3H]-Ketanserin; ref Simmler et al. (2013); cited from earlier work
Chain of h5-HT2A receptor (P28223 whole entry): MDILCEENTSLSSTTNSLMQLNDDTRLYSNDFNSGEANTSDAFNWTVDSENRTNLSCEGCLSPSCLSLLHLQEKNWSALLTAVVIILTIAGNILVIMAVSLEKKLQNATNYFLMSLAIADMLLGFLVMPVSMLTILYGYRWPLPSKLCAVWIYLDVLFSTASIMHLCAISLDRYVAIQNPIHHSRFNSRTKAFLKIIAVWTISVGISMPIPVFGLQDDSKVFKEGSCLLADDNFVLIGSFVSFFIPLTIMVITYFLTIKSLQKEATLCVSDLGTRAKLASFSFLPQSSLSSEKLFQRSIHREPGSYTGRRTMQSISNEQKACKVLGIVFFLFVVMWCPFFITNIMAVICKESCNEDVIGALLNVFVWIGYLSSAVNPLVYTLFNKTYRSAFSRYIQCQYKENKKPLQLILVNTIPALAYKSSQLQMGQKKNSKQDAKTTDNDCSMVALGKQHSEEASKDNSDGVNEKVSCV

## CC(N)Cc1ccccc1 (stereo not drawn) [Amphetamine, amphetamine, reference compound]
h5-HT2B receptor
  EC50: 9.4 ± 1.6 µM
h5-HT2C receptor
  Ki: > 13 µM
Dopaminergic D2 receptor
  Ki: > 30 µM
Adrenergic α1A receptor
  Ki: > 6 µM
Adrenergic α2A receptor
  Ki: 2.8 ± 0.8 µM
Human TAAR1
  EC50: 2.8 ± 0.8 µM
Rat TAAR1
  Ki: 0.23 ± 0.18 µM
Mouse TAAR1
  Ki: 0.09 ± 0.06 µM
h5-HT2A receptor
  Ki: > 13 µM
